Test results as given in patent US6017958A, “Method of treating malignant tumors with thyroxine analogues having no significant hormonal activity” (Octamer, Inc., priority 1997, dated 2000).

What was measured:
[1] = system: protein phosphatase 2A; assay: Activation of purified protein phosphatase 2A (32P-histone H1 dephosphorylation); assay type: biochemical; conditions: 50 μM, 10 min preincubation
Procedure: 2.1 Preparation of ^32 P-labeled Histone H1 Substrate
Histone H1 was phosphorylated with protein kinase C (Upstate Biotechnology,Inc., Lake Placid, N.Y.) in a volume of 100 μL according to standard protocols. Alternatively, histone H1 was phosphorylated with p34cdc2 kinase purified from rapidly multiplying Mytilus Edulis embryos at 4-8 stage after isolation with the p^13 -Suc agarose technique (Smythe and Newport, 1992, "Coupling of Mitosis to the Completion of S Phase in Xenopus Occurs via Modulation of the Tyrosine Kinase that Phosphorylates p34cdc2," Cell 68:787-797).
125 ng purified protein phosphatase 2A (Upstate Biotechnology, Inc., Lake Placid, N.Y.; Usui et al., 1983, J. Biol. Chem. 258:10455-10463) was preincubated with thyroxine analogue (50 μM) in buffer (20 mM MOPS or Tris, pH 7.5, 1 mM MgCl2, 60 μM β-mercaptoethanol) for 10 min. at 23° C. Total reaction volume was 20 μL. ^32 P-labeled histone H1 substrate (10 μg, 10^5 cpm) was added and the dephosphorylation reaction allowed to proceed for 5 min. at 23° C., after which time the reaction was quenched by addition of 2 μL Laeimli buffer. An identical reaction containing 125 ng untreated protein phosphatase 2A was run as a control.
Phosphorylated and dephosphorylated histone H1 were separated by gel electrophoresis (12% SDS-PAGE), bands containing phosphorylated histone H1 excised and assayed for ^32 P activity via scintillation counter.
The velocity of dephosphorylation in 5 min. is an indication of the initial velocity (Vinit) of the dephosphorylation reaction.

[2] = system: seven human cancer cell lines; assay: Cytocidal action on human cancer cell lines; assay type: cell-based
Procedure: Seven human cancer cell lines were obtained from the American Tissue Culture Collection (Rockville, Md.) and maintained in the recommended growth media. Cells were seeded into wells (2 cm^2) at a density of 2×10^4 cells/cm^2. Various concentrations of Compounds 1-13 were added to the media at the time of seeding.
The cultures were incubated for 72 hours at 37° C. (5% CO2 atmosphere). Following incubation, cells were detached with trypsin and counted in a hemocytometer.

[3] = system: E-ras 20 cells (E-ras transformed bovine endothelial cells); assay: Tumorigenicity of pretreated E-ras 20 cells in athymic nude mice; assay type: in vivo, bovine cells in nude mice; conditions: 10 μM
Procedure: E-ras transformed bovine endothelial cells (Bauer et al., 1996, Intl. J. Oncology 8:239-252) were exposed to 10 μM DIME for […]. The DIME-treated cells (10^5 or 10^6 cells/100 μL) were injected subcutaneously into nude mice and tumor progression followed for 25 days.
Tumorigenicity of E-ras 20 Cells in athymic nude mice was assayed as described previously. Bauer et al., 1996, "Modification of growth related enzymatic pathways and apparent loss of tumorigenicity of a ras-transformed bovine endothelial cell line by treatment with 5-iodo-6-amino-1,2-benzopyrone (INH2 BP)" Intl. J. Oncol. 8:239-252. The in vivo antitumorigenic action of DIME was assayed on athymic mice inoculated with 10^6 MDA-MB-231 cells, as in the tumorgenicity assay. In about 10-14 days when subcutaneous tumors appeared, DIME treatment consisting of p.o. administration of DIME suspension (once a day) was commenced and continued for 28-32 days as reported, Kun et al., 1996, "Induction of tumor apotosis by methyl-3,5-diiodo-4-(4'-methoxyphenoxy) benzoate (DIME)", Abstract No. 102, Int. J. Oncol. 9:supplement 829.
The structural specificity of DIME and its homologs and analogs can be assessed by examining Table 7 and Table 8. We have prepared 17 novel structural analogs of DIME and compared the antitumor activity of 10 of the compounds (Table 8) which appears sufficient to draw some general conclusions. The biological assay chosen was the determination of antitumorigenic action of the drugs on the in vivo tumorigenicity of E-ras cells in nude mice, Bauer et al., 1996, "Modification of growth related enzymatic pathways and apparent loss of tumorigenicity of a ras-transformed bovine endothelial cell line by treatment with 5-iodo-6-amino-1,2-benzopyrone (INH2 BP)" Intl. J. Oncol. 8:239-252. E-ras 20 cells (10^5 or 10^6) were incubated with 10 μM DIME or analogs for 4 days, then 10^5 and 10^6 cells were inoculated subcutaneously into nude mice (5 per test) and rates of tumor formation quantitated by direct tumor volume measurements (cf. 2). […] Identical antitumorigenic tests were performed with nine DIME analogs and taking the effect of DIME as 100% (comparing tumor sizes at day 25) the antitumor efficacy was calculated as percent of DIME activity. […] Results summarized in Table 8 illustrate that substituents in R1 and R2 determine antitumor efficacy.
The efficacy of DIME analogs on in vivo tumorigenicity of Eras 20 cells i
athymic mice was compared to that of DIME (compound 1) which was taken as
100, determining the size of tumor reduction at day 25. Pretreatment with
DIME or its analogs (Table 7) was with 10 μM for 4 days prior to s.c.

## COC(=O)c1cc(I)c(Oc2ccc(OC)cc2)c(I)c1 [Compound 1, Methyl 3,5-diiodo-4-(4'-methoxyphenoxy)benzoate]
[1]; control 10217 ± 1708, average of three samples
  Activity/5 min (initial velocity of histone H1 dephosphorylation): 24655 ± 8600 cpm
[1]
  increase of Vinit of histone H1 dephosphorylation: more than doubles Vinit
[2]; 72 hours
  cytocidal action: maximally active
[2]; cellular assays and in vivo
  activity in cellular assays and in vivo: highly active
[3]; 3 days pretreatment, followed 25 days
  tumorigenicity of pretreated cells: nearly completely abolished tumorigenicity
[3]; 4 days pretreatment
  tumor formation from pretreated cells (FIG. 4): tumor formation was completely abrogated
[3]; 4 days pretreatment, tumor size at day 25
  Efficacy (inhibition of E-ras 20 tumorigenicity, DIME = 100): 100%
